Numbered stars: 1 amine (or outer) side, 2 acyl side, 3 side chain; on linkers, the order of the positions; unused ones are H or OH. Bridge positions count the residues as written; N and C are the ends. Peptide text beside a SMILES is read from it. * marks the point of attachment. C20 diacid = O=C(O)CCCCCCCCCCCCCCCCCCC(=O)*; γGlu = O=C(O)[C@H](CCC(=O)[*:2])N[*:1]
Assays:
[1] = target: T1, rat amylin receptor (rat calcitonin receptor + rat RAMP 3) (Rattus norvegicus, UniProt P32214+Q9JJ73); assay: ASSAY (VI) binding to the rat amylin receptor; details: for IC50: binding to rat amylin receptor, read-out: rAmylin-R bind IC50
T1 construct: expressed in transfected cells; host or cells: BHK tk'ts 13 (transient, FuGENE 6), membranes
T1 sequence (P32214 25-479 isoform P32214-2 limits assumed): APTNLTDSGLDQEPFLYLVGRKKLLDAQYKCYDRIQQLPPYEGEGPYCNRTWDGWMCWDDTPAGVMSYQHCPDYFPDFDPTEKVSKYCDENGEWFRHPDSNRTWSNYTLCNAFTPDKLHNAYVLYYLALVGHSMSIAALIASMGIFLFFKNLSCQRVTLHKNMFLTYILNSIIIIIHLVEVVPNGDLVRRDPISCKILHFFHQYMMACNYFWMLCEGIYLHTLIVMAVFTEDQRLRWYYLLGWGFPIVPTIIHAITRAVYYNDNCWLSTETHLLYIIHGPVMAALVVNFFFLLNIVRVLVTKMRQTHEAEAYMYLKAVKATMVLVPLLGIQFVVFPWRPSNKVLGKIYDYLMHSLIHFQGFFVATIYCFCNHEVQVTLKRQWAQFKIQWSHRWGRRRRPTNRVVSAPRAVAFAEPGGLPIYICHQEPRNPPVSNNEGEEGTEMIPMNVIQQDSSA
T1 sequence (Q9JJ73 23-147 partner): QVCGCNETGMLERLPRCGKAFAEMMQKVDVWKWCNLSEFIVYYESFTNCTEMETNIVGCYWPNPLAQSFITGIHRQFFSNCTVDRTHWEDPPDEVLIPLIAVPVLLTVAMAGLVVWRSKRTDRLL
How it was run: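 Membranes for this rat amylin receptor binding assay came from BHK tk′ts 13 cells. The cells were transiently transfected with rat calcitonin receptor using the FuGENE® 6 reagent from Roche, as the manufacturer recommends. The cells were collected approximately 48 hours after transfection, and membranes were then prepared.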

[2] = target: T2, rat calcitonin receptor (Rattus norvegicus, UniProt P32214); assay: ASSAY (VIII) binding to the rat calcitonin receptor; details: Table 7, read-out: rCTR bind IC50
T2 construct: expressed in transfected cells; host or cells: BHK tk'ts 13 (transient, FuGENE 6), membranes
T2 sequence (P32214 25-479 isoform P32214-2 limits assumed): T1 sequence (P32214 25-479 isoform P32214-2 limits assumed)
How it was run: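 Receptor source: membranes from transiently transfected BHK tk′ts 13 cells expressing rat calcitonin receptor, collected roughly 48 hours after transfection.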

[3] = Table 7, rat binding selectivity, rCTR IC50 / rAmylin-R IC50
[4] = Table 7a (preferred compounds), rat binding selectivity, rCTR IC50 / rAmylin-R IC50
[5] = ratio of rCTR bind IC50 to rAmylin-R bind IC50

Row | SMILES | IC50 ([1]; Table 7) [nM] | Ratio rCT/rAmylin binding [1, 3] | Ratio rCT/rAmylin binding [1, 4] | Ratio rCT/rAmylin binding [1, 5] | IC50 [2] [nM]
1 | CC[C@H](C)[C@H](NC(=O)[C@H](C)NC(=O)CNC(=O)[C@H](Cc1ccccc1)NC(=O)[C@H](CC(N)=O)NC(=O)[C@@H]1CCCN1C(=O)[C@H](CO)NC(=O)[C@H](CO)NC(=O)[C@H](Cc1c[nH]cn1)NC(=O)[C@H](CCCNC(=N)N)NC(=O)[C@H](CC(C)C)NC(=O)[C@H](Cc1ccccc1)NC(=O)[C@H](CCC(=O)O)NC(=O)[C@H](C)NC(=O)[C@H](CC(C)C)NC(=O)[C@H](CCCNC(=N)N)NC(=O)[C@H](CCC(N)=O)NC(=O)[C@@H](NC(=O)[C@H](C)NC(=O)[C@@H]1CSSC[C@H](NC(=O)[C@H](CCCCN)NC(=O)CC[C@H](NC(=O)CCCCCCCCCCCCCCCCCCC(=O)O)C(=O)O)C(=O)N[C@@H](CC(N)=O)C(=O)N[C@@H]([C@@H](C)O)C(=O)N[C@@H](C)C(=O)N[C@@H]([C@@H](C)O)C(=O)N1)[C@@H](C)O)C(=O)N1CCC[C@H]1C(=O)N[C@@H](CO)C(=O)N[C@@H](CO)C(=O)N[C@H](C(=O)N[C@@H](CC(N)=O)C(=O)N[C@H](C(=O)NCC(=O)N[C@@H](Cc1c[nH]cn1)C(=O)N[C@@H](CC(N)=O)C(=O)N[C@H](C(=O)N[C@@H](Cc1ccc(O)cc1)C(N)=O)[C@@H](C)O)C(C)C)[C@@H](C)O [Example 17] ({C20 diacid-γGlu}-KCNTATCATQRLAEFLRHSSPNFGAIPSSTNVGHNTY-NH2; disulfide 2-7 (inferred)) | 2.71 | 35.9 | 35.9 | 35.9 | 97.2
2 | CC[C@H](C)[C@H](NC(=O)[C@H](C)NC(=O)CNC(=O)[C@H](Cc1ccccc1)NC(=O)[C@H](CC(N)=O)NC(=O)[C@@H]1CCCN1C(=O)[C@H](CO)NC(=O)[C@H](CO)NC(=O)[C@H](Cc1c[nH]cn1)NC(=O)[C@H](CCCNC(=N)N)NC(=O)[C@H](CC(C)C)NC(=O)[C@H](Cc1ccccc1)NC(=O)[C@H](CCC(=O)O)NC(=O)[C@H](C)NC(=O)[C@H](CC(C)C)NC(=O)[C@H](CCCNC(=N)N)NC(=O)[C@H](CCC(N)=O)NC(=O)[C@@H](NC(=O)[C@H](C)NC(=O)[C@@H]1CSSC[C@H](NC(=O)[C@H](CCCCN)NC(=O)CC[C@H](NC(=O)CCCCCCCCCCCCCCCCCCC(=O)O)C(=O)O)C(=O)N[C@@H](CC(N)=O)C(=O)N[C@@H]([C@@H](C)O)C(=O)N[C@@H](C)C(=O)N[C@@H]([C@@H](C)O)C(=O)N1)[C@@H](C)O)C(=O)N1CCC[C@H]1C(=O)N[C@@H](CO)C(=O)N[C@@H](CO)C(=O)N[C@H](C(=O)N[C@@H](CC(N)=O)C(=O)N[C@H](C(=O)NCC(=O)N[C@@H](CO)C(=O)N[C@@H](Cc1c[nH]cn1)C(=O)N[C@H](C(=O)N[C@@H](Cc1ccc(O)cc1)C(N)=O)[C@@H](C)O)C(C)C)[C@@H](C)O [Example 18] ({C20 diacid-γGlu}-KCNTATCATQRLAEFLRHSSPNFGAIPSSTNVGSHTY-NH2; disulfide 2-7) | 0.476 | 27.3 | 27.3 |  | 13
3 | CC[C@H](C)[C@H](NC(=O)[C@H](C)NC(=O)CNC(=O)[C@H](Cc1ccccc1)NC(=O)[C@H](CC(N)=O)NC(=O)[C@@H]1CCCN1C(=O)[C@H](CO)NC(=O)[C@H](CO)NC(=O)[C@H](Cc1c[nH]cn1)NC(=O)[C@H](CCCNC(=N)N)NC(=O)[C@H](CC(C)C)NC(=O)[C@H](Cc1ccccc1)NC(=O)[C@H](CCC(=O)O)NC(=O)[C@H](C)NC(=O)[C@H](CC(C)C)NC(=O)[C@H](CCCNC(=N)N)NC(=O)[C@H](CCC(N)=O)NC(=O)[C@@H](NC(=O)[C@H](C)NC(=O)[C@@H]1CSSC[C@H](NC(=O)[C@H](CCCCN)NC(=O)COCCOCCNC(=O)COCCOCCNC(=O)CC[C@H](NC(=O)CCCCCCCCCCCCCCCCCCC(=O)O)C(=O)O)C(=O)N[C@@H](CC(N)=O)C(=O)N[C@@H]([C@@H](C)O)C(=O)N[C@@H](C)C(=O)N[C@@H]([C@@H](C)O)C(=O)N1)[C@@H](C)O)C(=O)N1CCC[C@H]1C(=O)N[C@@H](CO)C(=O)N[C@@H](CO)C(=O)N[C@H](C(=O)N[C@@H](CC(N)=O)C(=O)N[C@H](C(=O)NCC(=O)N[C@@H](CO)C(=O)N[C@@H](CC(N)=O)C(=O)N[C@H](C(=O)N[C@@H](Cc1ccc(O)cc1)C(N)=O)[C@@H](C)O)C(C)C)[C@@H](C)O [Example 19] | 1.02 | 93.6 | 93.6 | 93.6 | 95.6

Now from value to molecule:

Row | IC50 ([1]; Table 7) [nM] | Ratio rCT/rAmylin binding [1, 3] | Ratio rCT/rAmylin binding [1, 4] | Ratio rCT/rAmylin binding [1, 5] | IC50 [2] [nM] | SMILES
4 | 2.19 | 28.5 | 28.5 | 28.5 | 62.5 | CC[C@H](C)[C@H](NC(=O)[C@H](C)NC(=O)CNC(=O)[C@H](Cc1ccccc1)NC(=O)[C@H](CC(N)=O)NC(=O)[C@@H]1CCCN1C(=O)[C@H](CO)NC(=O)[C@H](CO)NC(=O)[C@H](Cc1c[nH]cn1)NC(=O)[C@H](CCCNC(=N)N)NC(=O)[C@H](CC(C)C)NC(=O)[C@H](Cc1ccccc1)NC(=O)[C@H](CCC(=O)O)NC(=O)[C@H](C)NC(=O)[C@H](CC(C)C)NC(=O)[C@H](CCCNC(=N)N)NC(=O)[C@H](CCC(N)=O)NC(=O)[C@@H](NC(=O)[C@H](C)NC(=O)[C@@H]1CSSC[C@H](NC(=O)[C@H](CCCCN)NC(=O)CC[C@H](NC(=O)CCCCCCCCCCCCCCCCCCC(=O)O)C(=O)O)C(=O)N[C@@H](CC(N)=O)C(=O)N[C@@H]([C@@H](C)O)C(=O)N[C@@H](C)C(=O)N[C@@H]([C@@H](C)O)C(=O)N1)[C@@H](C)O)C(=O)N1CCC[C@H]1C(=O)N[C@@H](CO)C(=O)N[C@@H](CO)C(=O)N[C@H](C(=O)N[C@@H](CC(N)=O)C(=O)N[C@H](C(=O)NCC(=O)N[C@@H](CO)C(=O)N[C@@H](CCC(=O)O)C(=O)N[C@H](C(=O)N[C@@H](Cc1ccc(O)cc1)C(N)=O)[C@@H](C)O)C(C)C)[C@@H](C)O [Example 22] ({C20 diacid-γGlu}-KCNTATCATQRLAEFLRHSSPNFGAIPSSTNVGSETY-NH2; disulfide 2-7)
5 | 1.12 | 71.3 | 71.3 | 71.3 | 79.9 | CC[C@H](C)[C@H](NC(=O)[C@H](C)NC(=O)CNC(=O)[C@H](Cc1ccccc1)NC(=O)[C@H](CC(N)=O)NC(=O)[C@@H]1CCCN1C(=O)[C@H](CO)NC(=O)[C@H](CO)NC(=O)[C@H](Cc1c[nH]cn1)NC(=O)[C@H](CCCNC(=N)N)NC(=O)[C@H](CC(C)C)NC(=O)[C@H](Cc1ccccc1)NC(=O)[C@H](CC(N)=O)NC(=O)[C@H](C)NC(=O)[C@H](CC(C)C)NC(=O)[C@H](CCCNC(=N)N)NC(=O)[C@H](CCC(N)=O)NC(=O)[C@@H](NC(=O)[C@H](C)NC(=O)[C@@H]1CSSC[C@H](NC(=O)[C@H](CCCCN)NC(=O)CC[C@H](NC(=O)CCCCCCCCCCCCCCCCCCC(=O)O)C(=O)O)C(=O)N[C@@H](CC(N)=O)C(=O)N[C@@H]([C@@H](C)O)C(=O)N[C@@H](C)C(=O)N[C@@H]([C@@H](C)O)C(=O)N1)[C@@H](C)O)C(=O)N1CCC[C@H]1C(=O)N[C@@H](CO)C(=O)N[C@@H](CO)C(=O)N[C@H](C(=O)N[C@@H](CC(N)=O)C(=O)N[C@H](C(=O)NCC(=O)N[C@@H](CO)C(=O)N[C@@H](CCC(=O)O)C(=O)N[C@H](C(=O)N[C@@H](Cc1ccc(O)cc1)C(N)=O)[C@@H](C)O)C(C)C)[C@@H](C)O [Example 23]
6 | 3.48 | 37.7 | 37.7 | 37.7 | 131 | CC[C@H](C)[C@H](NC(=O)[C@H](C)NC(=O)CNC(=O)[C@H](Cc1ccccc1)NC(=O)[C@H](CC(N)=O)NC(=O)[C@@H]1CCCN1C(=O)[C@H](CO)NC(=O)[C@H](CO)NC(=O)[C@H](Cc1c[nH]cn1)NC(=O)[C@H](CCCNC(=N)N)NC(=O)[C@H](CC(C)C)NC(=O)[C@H](Cc1ccccc1)NC(=O)[C@H](CC(N)=O)NC(=O)[C@H](C)NC(=O)[C@H](CC(C)C)NC(=O)[C@H](CCCNC(=N)N)NC(=O)[C@H](CCC(N)=O)NC(=O)[C@@H](NC(=O)[C@H](C)NC(=O)[C@@H]1CSSC[C@H](NC(=O)[C@@H](N)CCCCNC(=O)COCCOCCNC(=O)COCCOCCNC(=O)CC[C@H](NC(=O)CCCCCCCCCCCCCCCCCCC(=O)O)C(=O)O)C(=O)N[C@@H](CC(N)=O)C(=O)N[C@@H]([C@@H](C)O)C(=O)N[C@@H](C)C(=O)N[C@@H]([C@@H](C)O)C(=O)N1)[C@@H](C)O)C(=O)N1CCC[C@H]1C(=O)N[C@@H](CO)C(=O)N[C@@H](CO)C(=O)N[C@H](C(=O)N[C@@H](CC(N)=O)C(=O)N[C@H](C(=O)NCC(=O)N[C@@H](CO)C(=O)N[C@@H](CCC(=O)O)C(=O)N[C@H](C(=O)N[C@@H](Cc1ccc(O)cc1)C(N)=O)[C@@H](C)O)C(C)C)[C@@H](C)O [Example 25]

— patent US9023789B2, “Amylin analogs and pharmaceutical compositions thereof” (Novo Nordisk A/S, priority 2012, dated 2015)
